Results on five molecules are retold here after ChEMBL document CHEMBL1201862, “PubChem BioAssay data set” (2004).

The target in test [1] is T1, Corticotropin-releasing factor receptor 2/Corticotropin-releasing factor-binding protein (Homo sapiens, UniProt P24387+Q13324).
T1 sequence (Q13324 whole entry): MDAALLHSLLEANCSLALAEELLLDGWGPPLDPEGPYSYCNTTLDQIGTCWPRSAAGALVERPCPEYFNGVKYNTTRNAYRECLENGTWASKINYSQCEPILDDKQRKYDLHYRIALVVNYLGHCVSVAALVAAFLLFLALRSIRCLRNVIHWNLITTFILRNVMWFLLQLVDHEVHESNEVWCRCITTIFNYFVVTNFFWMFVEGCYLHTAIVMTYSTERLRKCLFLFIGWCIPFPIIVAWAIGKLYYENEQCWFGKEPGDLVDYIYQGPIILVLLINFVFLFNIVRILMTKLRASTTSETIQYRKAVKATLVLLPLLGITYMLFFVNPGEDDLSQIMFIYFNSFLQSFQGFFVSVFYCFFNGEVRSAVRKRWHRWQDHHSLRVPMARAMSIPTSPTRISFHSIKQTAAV
T1 sequence (P24387 whole entry): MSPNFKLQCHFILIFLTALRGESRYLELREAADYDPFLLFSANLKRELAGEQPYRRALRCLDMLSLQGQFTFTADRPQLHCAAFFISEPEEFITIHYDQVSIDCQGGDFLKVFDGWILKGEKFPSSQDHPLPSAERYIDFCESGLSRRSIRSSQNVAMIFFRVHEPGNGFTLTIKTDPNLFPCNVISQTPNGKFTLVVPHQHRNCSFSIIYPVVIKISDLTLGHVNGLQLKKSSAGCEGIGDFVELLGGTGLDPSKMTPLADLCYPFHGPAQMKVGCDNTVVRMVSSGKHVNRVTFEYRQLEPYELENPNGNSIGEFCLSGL
The experiment in a line: Dose Response confirmation of uHTS hits for small molecule antagonists of the CRF-binding protein and CRF-R2 receptor complex. The class given is functional. Particulars: read-out: IC50_Mean.

Test [2] deals with T1, Corticotropin-releasing factor receptor 2/Corticotropin-releasing factor-binding protein. Description: activators of CRF receptor 2 with binding protein – uHTS hits, confirmation (AID 602473). The class given is functional. As to conditions: read-out: EC50_Mean.
Test [3] is described as follows: CRF-BP/CRF-R2 complex antagonists, dose response, cell-based, uHTS hits, 384-well (AID 651639). The class given is functional, Homo sapiens. Particulars: read-out: IC50_Mean.
Test [4] addresses T2, Beta-2 adrenergic receptor (Homo sapiens, UniProt P07550). The experiment in a line: Dose response for HTS for Beta-2AR agonists via FAP method from Powderset1. The class given is functional.
The target of test [5] is T2, Beta-2 adrenergic receptor. Description: beta2AR agonists driving receptor internalization, dose response, cell-based, FAP fluorogen, flow cytometry, cherry pick 1 (AID 588763). The class given is functional.
The nature of test [6]: Cytotoxicity Dose Response with AM2.2-beta2AR cells for PowderSet01. Particulars: read-out: EC50_MICROM. The class given is functional, cell-based.
For a further test, the target named is T3, Estrogen receptor (Homo sapiens, UniProt P03372).
T3 sequence (P03372 whole entry): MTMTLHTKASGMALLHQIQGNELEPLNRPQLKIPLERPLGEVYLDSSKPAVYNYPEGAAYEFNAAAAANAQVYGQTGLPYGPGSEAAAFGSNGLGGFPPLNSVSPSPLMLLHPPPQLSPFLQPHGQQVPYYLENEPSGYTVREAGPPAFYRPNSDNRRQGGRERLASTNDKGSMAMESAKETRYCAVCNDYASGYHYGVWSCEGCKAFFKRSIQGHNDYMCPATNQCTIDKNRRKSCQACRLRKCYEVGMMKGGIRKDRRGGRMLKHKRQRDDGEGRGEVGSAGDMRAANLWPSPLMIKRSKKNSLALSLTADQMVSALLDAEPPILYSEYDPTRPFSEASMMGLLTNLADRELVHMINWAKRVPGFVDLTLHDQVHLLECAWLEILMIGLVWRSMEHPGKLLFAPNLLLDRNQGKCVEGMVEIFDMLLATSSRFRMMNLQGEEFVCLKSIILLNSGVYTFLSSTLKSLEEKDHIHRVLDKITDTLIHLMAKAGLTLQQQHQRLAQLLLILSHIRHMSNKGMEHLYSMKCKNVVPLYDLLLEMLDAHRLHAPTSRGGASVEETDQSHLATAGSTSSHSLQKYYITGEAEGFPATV

The target of test [7] is T4, Estrogen receptor beta (Homo sapiens, UniProt Q92731). Description: ERβ–SRC-3 coactivator interaction inhibitors, confirmation, orthogonal assay, biochemical, ELISA, streptavidin-HRP readout (AID 1060). Background: ELISA stands for enzyme-linked immunosorbent assay.
The target in test [8] is T4, Estrogen receptor beta.
The target in test [9] is T5, Sentrin-specific protease 8 (Homo sapiens, UniProt Q96LD8).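 Further: kinetic enzyme assay of SENP8 cleaving a Nedd8 protein substrate, dose-response confirmation of screening hits.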
T5 sequence (Q96LD8 whole entry): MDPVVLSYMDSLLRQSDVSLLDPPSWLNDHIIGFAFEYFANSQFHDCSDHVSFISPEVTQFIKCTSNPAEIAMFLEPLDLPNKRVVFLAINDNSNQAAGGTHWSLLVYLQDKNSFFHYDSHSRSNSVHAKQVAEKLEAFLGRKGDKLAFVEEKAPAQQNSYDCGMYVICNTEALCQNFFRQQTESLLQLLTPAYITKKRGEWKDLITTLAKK
In kind it is functional.

For test [10], the target named is Induced myeloid leukemia cell differentiation protein Mcl-1 (Homo sapiens, UniProt Q07820). In kind it is functional.
The target in a further test is Cytochrome P450 2C9 (Homo sapiens, UniProt P11712).
Test [11] has as its target Potassium voltage-gated channel subfamily KQT member 2 (Rattus norvegicus, UniProt O88943). Description: KCNQ2 potassium channel inhibitors, dose response, cell-based, automated electrophysiology, set II, rat KCNQ2 (AID 588637). The class given is functional.
The next test has as its target Cytochrome P450 2C19 (Homo sapiens, UniProt P33261). Description: Cytochrome panel assay with activity outcomes. Panel member name: p450-cyp2c19 Compounds with AC50 equal or less than 10 uM are considered active. The class given is functional. As to conditions: read-out: AC50.
The target in a further test is T6, Cytochrome P450 1A2 (Homo sapiens, UniProt P05177).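 Further: PubChem cytochrome P450 panel assay, CYP1A2 panel member.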
T6 sequence (P05177 whole entry): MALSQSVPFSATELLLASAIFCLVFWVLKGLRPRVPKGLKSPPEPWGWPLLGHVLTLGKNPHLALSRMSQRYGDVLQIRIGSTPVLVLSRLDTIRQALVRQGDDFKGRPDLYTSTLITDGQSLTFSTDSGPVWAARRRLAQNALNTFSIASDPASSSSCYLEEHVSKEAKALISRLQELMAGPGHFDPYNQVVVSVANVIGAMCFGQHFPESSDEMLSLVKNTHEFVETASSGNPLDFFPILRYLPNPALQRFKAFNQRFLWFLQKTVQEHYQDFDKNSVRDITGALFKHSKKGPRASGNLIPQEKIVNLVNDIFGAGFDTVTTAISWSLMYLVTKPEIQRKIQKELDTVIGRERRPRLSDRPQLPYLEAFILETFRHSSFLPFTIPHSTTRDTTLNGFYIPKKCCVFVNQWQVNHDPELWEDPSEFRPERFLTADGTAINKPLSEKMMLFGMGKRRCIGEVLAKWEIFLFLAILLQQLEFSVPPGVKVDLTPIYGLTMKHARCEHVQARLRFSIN

The test system of test [12] is Streptococcus sp. 'group A'. The experiment in a line: growth inhibition of control SK(-) GAS strain, dose response, counter-screen for streptokinase expression inhibitor project, luminescence, kanamycin, BacTiterGlo, confirmation (AID 1900). In kind it is functional, organism-based. In general terms: A counterscreen serves to expose hits that act by an unwanted route or on another target.

The next test relates to Streptococcus. Description: Group A Streptococcus viability loss, dose response, counter-screen for streptokinase expression inhibitor project, luminescence, BacTiterGlo (AID 1915).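 Further: potency for reduction of bacterial viability or growth.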 In kind it is functional, organism-based.
Another test has as its target T7, Streptokinase A (Streptococcus pyogenes serotype M1, UniProt P10520).
T7 sequence (P10520 whole entry): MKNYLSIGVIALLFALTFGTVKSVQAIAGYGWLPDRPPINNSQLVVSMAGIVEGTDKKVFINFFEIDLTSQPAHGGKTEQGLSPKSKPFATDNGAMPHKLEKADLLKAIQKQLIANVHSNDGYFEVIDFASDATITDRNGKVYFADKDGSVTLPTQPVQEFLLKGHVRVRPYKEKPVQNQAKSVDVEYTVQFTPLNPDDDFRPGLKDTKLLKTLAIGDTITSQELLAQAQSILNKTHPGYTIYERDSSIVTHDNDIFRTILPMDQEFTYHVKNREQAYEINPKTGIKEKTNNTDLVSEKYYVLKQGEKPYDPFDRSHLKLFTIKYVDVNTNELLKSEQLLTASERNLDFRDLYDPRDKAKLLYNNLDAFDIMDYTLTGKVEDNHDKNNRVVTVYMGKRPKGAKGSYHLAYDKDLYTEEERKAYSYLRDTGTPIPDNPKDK
The experiment in a line: S. pyogenes streptokinase expression inhibitors, potency, dose response, plasminogen activation absorbance, OD405 (AID 1914).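 Further: secreted streptokinase activity via plasminogen activation per viability signal from cell pellet.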 The class given is functional, Streptococcus pyogenes M1 GAS.

Test [13] has as its target T8, Sentrin-specific protease 1 (Homo sapiens, UniProt Q9P0U3). Description: Dose response confirmation of small molecule inhibitors of the catalytic domain of the SUMO protease, SENP1 in a FRET assay. The class given is functional. As to conditions: read-out: IC50_Mean.
Test [14] deals with Transitional endoplasmic reticulum ATPase (Homo sapiens, UniProt P55072, C522A). The experiment in a line: C522A mutant p97 ATPase inhibitors, dose response, counter-screen for p97 inhibitor project, biochemical, luminescence (AID 1544).
Test [15] in a line: Luminescence Cell-Based Dose Retest to Confirm Inhibitors of Cancer Stem Cells. [Related pubchem assays (depositor defined):AID2717, AID2721]. In kind it is functional. Particulars: Homo sapiens.
Test [16] concerns the target T8, Sentrin-specific protease 1. Description: potency of human SENP1 inhibitors, dose response, biochemical, kinetic FRET (AID 651697). In kind it is functional. Particulars: read-out: IC50_Mean.
The target of test [17] is Transitional endoplasmic reticulum ATPase (Homo sapiens, UniProt P55072). Description: p97 ATPase inhibitors, dose response, biochemical (AID 1534).

The source made the active and inactive calls.

T4 sequence (Q92731 whole entry): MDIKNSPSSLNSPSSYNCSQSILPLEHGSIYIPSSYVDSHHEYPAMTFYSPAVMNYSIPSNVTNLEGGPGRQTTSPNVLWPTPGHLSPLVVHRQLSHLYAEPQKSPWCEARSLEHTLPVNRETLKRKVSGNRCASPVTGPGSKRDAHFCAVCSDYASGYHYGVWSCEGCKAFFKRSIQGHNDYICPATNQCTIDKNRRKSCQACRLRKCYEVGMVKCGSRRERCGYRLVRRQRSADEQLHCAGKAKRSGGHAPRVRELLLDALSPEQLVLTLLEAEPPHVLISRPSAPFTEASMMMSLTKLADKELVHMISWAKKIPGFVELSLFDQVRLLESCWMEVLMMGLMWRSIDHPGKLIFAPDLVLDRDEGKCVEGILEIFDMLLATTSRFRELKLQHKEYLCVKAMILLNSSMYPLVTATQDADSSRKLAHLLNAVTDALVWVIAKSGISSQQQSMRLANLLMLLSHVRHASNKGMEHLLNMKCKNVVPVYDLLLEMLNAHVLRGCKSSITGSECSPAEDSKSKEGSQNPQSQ
T8 sequence (Q9P0U3 whole entry, the tested form may be a part): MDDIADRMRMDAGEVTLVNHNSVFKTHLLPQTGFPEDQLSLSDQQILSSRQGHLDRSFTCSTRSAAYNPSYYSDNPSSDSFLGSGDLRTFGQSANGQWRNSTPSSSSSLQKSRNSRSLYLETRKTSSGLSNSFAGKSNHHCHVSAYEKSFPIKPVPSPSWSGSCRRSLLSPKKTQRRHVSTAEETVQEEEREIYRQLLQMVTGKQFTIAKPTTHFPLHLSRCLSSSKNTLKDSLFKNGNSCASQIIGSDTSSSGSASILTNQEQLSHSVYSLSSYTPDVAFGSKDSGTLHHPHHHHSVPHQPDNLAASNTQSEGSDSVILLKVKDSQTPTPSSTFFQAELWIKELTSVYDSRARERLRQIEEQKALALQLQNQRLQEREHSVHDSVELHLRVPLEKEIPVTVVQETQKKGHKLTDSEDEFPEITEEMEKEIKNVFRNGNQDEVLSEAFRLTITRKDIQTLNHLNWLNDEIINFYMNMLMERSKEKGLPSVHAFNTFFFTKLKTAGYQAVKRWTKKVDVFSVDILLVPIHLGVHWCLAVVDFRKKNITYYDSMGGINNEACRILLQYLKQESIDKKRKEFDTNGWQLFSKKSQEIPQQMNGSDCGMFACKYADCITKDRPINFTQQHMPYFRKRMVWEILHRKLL
T2 sequence (P07550 whole entry): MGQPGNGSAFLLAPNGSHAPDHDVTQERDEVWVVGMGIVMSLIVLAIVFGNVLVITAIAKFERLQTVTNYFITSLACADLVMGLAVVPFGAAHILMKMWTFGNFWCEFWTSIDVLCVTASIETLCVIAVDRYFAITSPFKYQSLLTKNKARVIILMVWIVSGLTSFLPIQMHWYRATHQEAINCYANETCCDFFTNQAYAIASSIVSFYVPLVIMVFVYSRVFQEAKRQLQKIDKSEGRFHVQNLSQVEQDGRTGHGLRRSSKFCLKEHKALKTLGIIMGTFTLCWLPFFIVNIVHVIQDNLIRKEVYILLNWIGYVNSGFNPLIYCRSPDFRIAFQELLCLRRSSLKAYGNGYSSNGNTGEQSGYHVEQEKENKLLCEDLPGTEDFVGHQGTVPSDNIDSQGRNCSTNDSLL
Cytochrome P450 2C9, sequence (P11712 whole entry): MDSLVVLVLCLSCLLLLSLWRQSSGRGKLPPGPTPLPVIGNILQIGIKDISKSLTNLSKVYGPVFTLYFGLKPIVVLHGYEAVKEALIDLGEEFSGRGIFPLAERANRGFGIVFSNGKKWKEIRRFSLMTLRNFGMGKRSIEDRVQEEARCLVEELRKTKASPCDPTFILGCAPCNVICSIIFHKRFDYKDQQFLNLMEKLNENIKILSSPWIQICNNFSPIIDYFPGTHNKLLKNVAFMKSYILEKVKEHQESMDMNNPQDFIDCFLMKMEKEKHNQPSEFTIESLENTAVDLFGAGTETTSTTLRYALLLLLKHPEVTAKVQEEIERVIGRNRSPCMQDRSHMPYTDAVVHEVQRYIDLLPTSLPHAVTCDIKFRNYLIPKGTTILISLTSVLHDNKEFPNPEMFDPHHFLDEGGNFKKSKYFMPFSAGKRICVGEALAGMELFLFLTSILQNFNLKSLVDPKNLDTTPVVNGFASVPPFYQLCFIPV
Cytochrome P450 2C19, sequence (P33261 whole entry): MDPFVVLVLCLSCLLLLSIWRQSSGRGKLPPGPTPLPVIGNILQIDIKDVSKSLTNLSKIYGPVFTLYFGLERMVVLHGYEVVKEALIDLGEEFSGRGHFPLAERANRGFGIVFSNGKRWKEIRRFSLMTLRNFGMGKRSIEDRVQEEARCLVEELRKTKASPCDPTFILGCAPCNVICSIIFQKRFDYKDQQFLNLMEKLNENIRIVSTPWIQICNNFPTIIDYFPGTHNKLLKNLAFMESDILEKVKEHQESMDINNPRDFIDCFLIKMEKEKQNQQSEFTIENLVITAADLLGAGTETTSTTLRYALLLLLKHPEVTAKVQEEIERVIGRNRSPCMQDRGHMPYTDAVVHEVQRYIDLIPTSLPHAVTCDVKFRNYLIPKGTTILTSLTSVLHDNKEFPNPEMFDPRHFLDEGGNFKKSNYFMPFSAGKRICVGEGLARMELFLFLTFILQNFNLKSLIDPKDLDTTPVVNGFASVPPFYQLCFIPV
Induced myeloid leukemia cell differentiation protein Mcl-1, sequence (Q07820 whole entry): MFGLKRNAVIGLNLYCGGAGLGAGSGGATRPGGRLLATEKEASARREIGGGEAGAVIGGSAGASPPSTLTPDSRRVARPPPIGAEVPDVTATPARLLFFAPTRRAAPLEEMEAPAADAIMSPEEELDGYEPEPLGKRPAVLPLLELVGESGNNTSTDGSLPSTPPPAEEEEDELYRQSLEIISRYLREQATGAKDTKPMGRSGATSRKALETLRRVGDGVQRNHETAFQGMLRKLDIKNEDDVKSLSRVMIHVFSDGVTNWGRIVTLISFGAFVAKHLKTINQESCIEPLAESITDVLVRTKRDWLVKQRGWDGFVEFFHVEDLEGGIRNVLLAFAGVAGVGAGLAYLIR
Potassium voltage-gated channel subfamily KQT member 2, sequence (O88943 whole entry): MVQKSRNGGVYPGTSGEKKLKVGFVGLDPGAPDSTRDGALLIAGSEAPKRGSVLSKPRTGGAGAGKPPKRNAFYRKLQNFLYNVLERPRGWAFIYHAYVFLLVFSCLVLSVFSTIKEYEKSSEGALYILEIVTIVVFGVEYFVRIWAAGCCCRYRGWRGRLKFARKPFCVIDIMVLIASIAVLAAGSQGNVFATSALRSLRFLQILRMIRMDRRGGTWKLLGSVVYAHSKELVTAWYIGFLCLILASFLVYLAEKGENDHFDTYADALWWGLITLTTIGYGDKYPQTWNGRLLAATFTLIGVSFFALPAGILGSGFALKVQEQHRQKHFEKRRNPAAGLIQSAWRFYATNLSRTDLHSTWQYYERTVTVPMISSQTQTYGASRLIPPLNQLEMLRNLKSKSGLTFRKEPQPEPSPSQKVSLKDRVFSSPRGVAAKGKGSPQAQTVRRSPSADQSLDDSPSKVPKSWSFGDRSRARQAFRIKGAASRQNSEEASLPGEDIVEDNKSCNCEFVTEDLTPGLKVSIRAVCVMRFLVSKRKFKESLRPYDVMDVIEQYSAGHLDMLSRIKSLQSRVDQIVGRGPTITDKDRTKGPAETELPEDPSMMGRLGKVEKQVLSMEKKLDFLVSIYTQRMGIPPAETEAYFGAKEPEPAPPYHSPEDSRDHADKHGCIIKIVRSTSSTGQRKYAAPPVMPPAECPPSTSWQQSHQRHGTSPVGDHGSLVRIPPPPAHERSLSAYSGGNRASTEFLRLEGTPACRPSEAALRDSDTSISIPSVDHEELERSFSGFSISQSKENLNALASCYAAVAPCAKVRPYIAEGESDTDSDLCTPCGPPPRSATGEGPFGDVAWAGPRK
Transitional endoplasmic reticulum ATPase (Homo sapiens, UniProt P55072, C522A), sequence (P55072 2-806 C522A limits assumed): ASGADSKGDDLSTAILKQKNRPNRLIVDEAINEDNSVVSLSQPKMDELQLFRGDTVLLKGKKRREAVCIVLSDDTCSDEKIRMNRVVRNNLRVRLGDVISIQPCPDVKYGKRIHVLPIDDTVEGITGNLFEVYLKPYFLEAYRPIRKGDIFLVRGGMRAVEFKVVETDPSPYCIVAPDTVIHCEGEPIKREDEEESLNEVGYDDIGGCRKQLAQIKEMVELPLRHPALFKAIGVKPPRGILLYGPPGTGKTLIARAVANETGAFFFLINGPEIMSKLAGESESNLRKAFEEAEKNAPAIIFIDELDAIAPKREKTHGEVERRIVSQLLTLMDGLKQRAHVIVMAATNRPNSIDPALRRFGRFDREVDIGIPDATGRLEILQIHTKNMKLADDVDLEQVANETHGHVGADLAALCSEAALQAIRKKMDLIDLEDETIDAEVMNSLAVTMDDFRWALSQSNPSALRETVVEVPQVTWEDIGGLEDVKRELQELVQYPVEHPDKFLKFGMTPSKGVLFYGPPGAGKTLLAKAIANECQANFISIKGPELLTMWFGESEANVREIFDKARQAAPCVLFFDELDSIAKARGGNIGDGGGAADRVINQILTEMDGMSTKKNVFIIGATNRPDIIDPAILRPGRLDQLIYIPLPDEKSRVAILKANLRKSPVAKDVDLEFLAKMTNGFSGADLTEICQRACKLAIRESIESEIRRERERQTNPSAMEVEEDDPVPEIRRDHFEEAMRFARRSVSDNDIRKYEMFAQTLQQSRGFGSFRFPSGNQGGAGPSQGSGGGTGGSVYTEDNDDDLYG

As to `CCOC(=O)CSC1=C(C#N)C(c2ccc(Cl)cc2)C(C(=O)OC)C(=O)N1` (stereo not drawn), the IC50 in test [1] was 26.5 µM (active); in [3] it was 9.62 µM (active). The EC50 in [2] is > 53 µM (inactive).

On to `CCCCC(=O)Nc1ccc(S(=O)(=O)N2CCCCC2c2cccnc2)cc1` (stereo not drawn), for which the EC50 in [4] was 0.0322 µM (active); in [5] it was 0.0798 µM (active); in [6], 23.3 µM (active).

For `CC1=C(SCCC#N)S/C(=C2\SC(C)=C(SCCC#N)S2)S1`, the IC50 on Estrogen receptor is 5.1 µM (active); at Estrogen receptor beta [7], 0.129 µM (not active); against Estrogen receptor beta [8] it was > 50 µM (not active); in test [9], 0.299 µM (active); in test [10], 2.89 µM (active).

For the molecule `O=C(CSc1nc2ccccc2c(=O)n1NC(=O)c1ccccc1)c1ccc(Cl)cc1`, the concentration at half-maximal activity (AC50) at Cytochrome P450 2C9 was 1 µM (inconclusive); at Cytochrome P450 2C19, 2.24 µM (inconclusive); at Cytochrome P450 1A2, 6.31 µM (inconclusive). Moreover, the IC50 in test [11] is 1.53 µM (active). Besides, the EC50 in [12] is 7.26 µM (active); in the test on Streptococcus it was > 150 µM (not active); on Streptokinase A, 106 µM (active).

`Oc1ccc(Cl)cc1/C=C(\Cl)c1nc(O)c2ccc(Cl)cc2n1`: the IC50 is 0.428 µM (active) in test [13], > 50 µM (not active) in [14], 0.654 µM (active) in test [16] and > 50 µM (not active) in test [17]. Moreover, the concentration at half-maximal activity (AC50) in [15] is 1.32 µM (active).

By AC50 is commonly meant the concentration at which the activity in the assay is half-maximal.
